Laboratory results published in patent US12721832B2, “Anti-senescence plant polyphenol drug downregulating senescence-related secretory phenotype and use thereof” (BYHEALTH CO., LTD., priority 2021, dated 2026).

What was measured:
[1] = system: senescent PSC27 cells; assay: RNA-seq / GSEA expression profile of BLEO-induced senescent PSC27 cells; assay type: cell-based, human
Experimental: Whole-transcriptome sequencing was performed on the primary human prostate stromal cell line PSC27 under different treatment conditions. Total RNA samples were obtained from stromal cells. Their integrity was verified by Bioanalyzer 2100 (Agilent), RNA was sequenced by Illumina HiSeq X10, and gene expression levels were quantified by software package rsem (https://deweylab.github.io/rsem/). Briefly, rRNA was depleted from RNA samples with the RiboMinus Eukaryote Kit (Qiagen, Valencia, Calif., USA); and according to the manufacturer's instructions, TruSeq Stranded Total RNA Preparation Kits (Illumina, San Diego, Calif.), USA) was used to construct a strand-specific RNA-seq library before deep sequencing.
Paired-end transcriptomic reads were mapped to a reference genome (GRCh38/hg38), and reference-annotation was performed from Gencode v27 using the Bowtie tool. Duplicate reads were identified using the picard Tools (1.98) script to mark duplicates (https://github.com/broadinstitute/picard), and only non-duplicate reads were retained. Reference splice junctions were provided by reference transcriptome (Ensembl Build 73). FPKM values were calculated with Cufflinks, and Cufflinks maximum likelihood estimation function was used to call differential gene expression. Genes with significant changes in expression were defined by false discovery rate (FDR)-corrected P-values<0.05, and only Ensembl Genes 73 with status “Known” and biotype “coding” were used for downstream analysis.
Next, Trim Galore (v0.3.0) (http://www.bioinformatics.babraham.ac.uk/projects/trim_galore/) was used to trim the reads, while the quality assessment was carried out by using FastQC (v0.10.0) (http://www.bioinformatics.bb src.ac.uk/projects/fastqc/). Subsequently, a preliminary analysis of the raw data was perform on a free online platform, Majorbio I-Sanger Cloud Platform (www.i-sanger.com), by using DAVID bioinformatics platform (https://david.ncifcrf.gov/) and Ingenuity Pathways Analysis (IPA) program (http://www.ingenuity.com/index.html), the raw data were deposited in the NCBI Gene Expression Omnibus (GEO) database with access code GSE156448.
Based on the data obtained from the preliminary analysis of RNA-seq, analyzed and compared each differentially expressed significant gene, the genes were sorted using the “wald statistics” obtained from DESeq2, GSEA was performed on the sorting lists of all planning gene sets available in MSigDB (http://software.broadinstitute.org/gsea/msigdb). DESeq2 independent filtering was based on the average of normalized read counts to select genes with very low expression levels. The GSEA signature of SASP was as described in our previous publication (Zhang et al., 2018a).

[2] = system: SASP factors; assay: qRT-PCR of SASP molecules in BLEO-induced senescent PSC27 cells at different PCC1 concentrations; assay type: cell-based, human
Experimental: All data are normalized results compared to the CTRL group. *, P<0.05; **, P<0.01.
Total RNA of cells in the growth phase or stasis phase was extracted with Trizol reagent, 1 mL Trizol was added to each T25 culture flask, the cell layer was scraped off with a cell scraper, transferred into a centrifuge tube, and mixed well until not viscous. […] After the RNA was quantified by a spectrophotometer, a small amount of total RNA was taken for 1% agarose electrophoresis to check the status and quality of the RNA. […]
Sample was loaded according to the above standard, and the reaction conditions were: 95° C. pre-denaturation for 15 seconds, then 95° C. for 5 seconds, 60° C. for 31 seconds, 40 cycles; melting curve conditions were 95° C. for 15 seconds, 60° C. for 30 seconds, 95° C. for 15 seconds. […] The expression of (3-actin was used as an internal reference. After the reaction was completed, the amplification of each gene was checked by software analysis, the corresponding threshold cycle number was derived, and the relative expression of each gene was calculated using the 2-AACt method. The peak and waveform of the melting curve was analyzed to determine whether the obtained amplification product was a specific single target fragment. […]

[3] = BLEO/PCC1 vs BLEO group, fold change 2.0, P<0.01

Oc1cc(O)c2c(c1)O[C@H](c1ccc(O)c(O)c1)[C@H](O)[C@H]2c1c(O)cc(O)c2c1O[C@H](c1ccc(O)c(O)c1)[C@H](O)[C@H]2c1c(O)cc(O)c2c1O[C@H](c1ccc(O)c(O)c1)[C@H](O)C2 [PCC1, procyanidin C1]
number of genes significantly down-regulated [1, 3]: 4406 genes
number of genes up-regulated [1, 3]: 2766 genes
expression of SASP factors in senescent cells after treatment ([1]; RNA-seq heatmap): generally decreased
GSEA molecular signatures of SASP expression or NF-κB activation ([1]; senescent cells after PCC1): significant repression
SASP inhibition at lower or higher concentrations ([2]; compared with 10 μM): less effective
working concentration inhibiting SASP development with the greatest efficiency ([2]; concentration gradient, senescent PSC27): 10 µM
